Measured values reported in US10940218B2, “Treatment of meningiomas using phenylbenzothiazole, stilbene, biphenylalkyne, or pyridine derivatives” (MAYO FOUNDATION FOR MEDICAL EDUCATION AND RESEARCH, priority 2012, dated 2021).
Entries after “also recorded” stand apart in the source; their conditions may differ.

What was measured:
[1] = test system: meningioma tissue sections; assay: Fluorescent tissue staining of meningioma sections; format: binding, human; details: for location of staining within meningioma cells: tissue sections
From the text: (§1) The Department of Pathology, Mayo Clinic Rochester Tumor Tissue Registry, contains tumor samples procured by autopsy and surgery. Meningiomas, brain metastases and other tumors were identified by searching CoPath, a Mayo Clinic electronic pathology database of tumors collected since 1982. Tumor type was confirmed by viewing H&E stained slides under a light microscope.
(§2) Fresh cut 5 μm thick sections were used. Each staining run included normal brain and Alzheimer diseased brain as controls. Fluorescent tissue staining and microscopy was performed similar to methods previously described at Ikonomovic M D, Klunk W E, Abrahamson E E, et al., “Post-mortem correlates of in vivo PiB-PET amyloid imaging in a typical case of Alzheimer's disease”, Brain: A Journal Of Neurology 2008; 131:1630-45. Meningioma and other brain tumor sections were stained with 100 nM CN-PiB, 100 nM of unlabeled PiB or with saline alone as a negative control. The staining protocol was as follows: deparaffinization and rehydration, 0.25% KMnO4 incubation, water wash, 1% K2S2O5/1% Oxalic Acid incubation, water wash, PBS wash, 6-CN-PiB/PiB/saline incubation, PBS wash, NaCl, K2HPO4, and KH2PO4 incubation, water wash, mount coverslip, and storage at 4° C. in the dark until imaged. Slides were imaged within five days of staining. Immunohistochemical staining of meningiomas for beta amyloid protein was performed using NCL-B-Amyloid mouse anti-human antibody per standard clinical protocol.
(§3) Tissue stain images were obtained on a Zeiss 510 confocal microscope with excitation at 405 nm, a 420-480 bandpass filter, and the laser set at 15% power.
(§4) Images were obtained with a C-Apochromat 40×/1.2 W lens.

[2] = test system: other intracranial tumors and brain tissue sections; assay: Fluorescent tissue staining of other tumors and brain tissue; format: binding, human
From the text: as §1, §2, §3, §4

[3] = test system: meningiomas; assay: PiB PET/CT imaging of meningiomas in patients; format: in vivo, human
From the text: (§5) An Alzheimer's imaging database of two hundred forty-one patients was reviewed. […] All patients had been imaged by at least one MRI, as well as by FDG-PET/CT and PET/CT using the compound of formula (V). MRI reports of all patients were reviewed for possible meningiomas and other tumors. […] The diagnostic confidence of the radiologists interpreting the studies varied slightly, depending on factors such as tumor location and previous imaging. […] Tumors smaller than 7 millimeters are generally considered too small to be evaluated by PET or PET/CT. This is an excepted limitation of PET or PET/CT as a modality. […] None of the meningiomas in the series would be classified as atypical or aggressive based on MRI or CT imaging. One presumed extracranial schwannoma was seen, showing mild uptake on FDG-PET/CT, but no uptake on PET/CT using the compound of formula (V).
(§6) The radiologic interpretations of MRI, CT and FDG PET/CT scans from a population of 834 people who participated in the population-based Mayo Clinic Study of Aging (MCSA) from March 2006 through September 2011 were reviewed for the presence of tumors or other brain lesions. (See, Kantarci K, Lowe V, Przybelski S A, et al., “Magnetic resonance spectroscopy, {beta}-amyloid load, and cognition in a population-based sample of cognitively normal older adults”, Neurology 2011; 77:951-8; and Roberts R O, Geda Y E, Knopman D S, et al., “The Mayo Clinic Study of Aging: design and sampling, participation, baseline measures and sample characteristics”, Neuroepidemiology 2008; 30:58-69.) Participants were randomly selected for recruitment in the MCSA from a population of older adult residents of Olmsted County, Minn., USA. Those with neurological, psychological or systemic illnesses were not excluded. Individuals with dementia, or those unable to be imaged for medical reasons were excluded. All patients were imaged with C11-PiB PET/CT, F18-FDG PET/CT and non-contrast MRI at least once as part of the study. Any additional patient imaging and clinical history was then reviewed.
(§7) Tumors found in any of the subjects were then categorized as possible meningiomas or non-meningiomas based on the reading of the reporting neuroradiologist. Possible meningiomas were further reviewed as a group. A more strict set of criteria were applied to select a subset of the possible meningiomas that were designated “high-likelihood meningiomas” for further analysis and were defined by (1) tumors that were confirmed to be enhancing on diagnostic MRI (obtained separately for clinical purposes) and (2) tumors that had greater than two years of follow-up imaging confirming no growth or slow growth (1-2 mm per year). When the lead diagnosis of the identified tumor was metastasis, the diagnosis was confirmed by biopsy or autopsy. All tumors smaller than 5 mm thick were excluded, given they fall below the generally accepted lower limits of PET/CT resolution.
(§8) PET imaging was performed as part of the Mayo Clinic Study of Aging as previously described. (See Kantarci K, Lowe V, Przybelski S A, et al., “Magnetic resonance spectroscopy, {beta}-amyloid load, and cognition in a population-based sample of cognitively normal older adults”, Neurology 2011; 77:951-8.) PiB PET/CT, then FDG PET/CT were performed on the same day. PET/CT imaging was performed on a 690XT or DRX PET/CT tomograph (GE Healthcare). The PET sinograms were reconstructed using a fully-3D OSEM algorithm into a 30 cm field of view; the pixel size was 1.2 mm and the slice thickness was 3.27 mm (DRX) or 1.96 mm (690XT). CT imaging was obtained immediately prior to PET acquisition and used for attenuation correction. Cerebral PiB retention, a marker of amyloid deposition, was measured as previously described. (See Kantarci K, Lowe V, Przybelski S A, et al. “Magnetic resonance spectroscopy, {beta}-amyloid load, and cognition in a population-based sample of cognitively normal older adults”, Neurology 2011; 77:951-8.) […]

[4] = test system: normal adjacent tissues; assay: PiB PET/CT activity of normal adjacent tissues; format: in vivo, human
From the text: as §6
(§9) PET imaging was performed as part of the Mayo Clinic Study of Aging as previously described. (See Kantarci K, Lowe V, Przybelski S A, et al., “Magnetic resonance spectroscopy, {beta}-amyloid load, and cognition in a population-based sample of cognitively normal older adults”, Neurology 2011; 77:951-8.) PiB PET/CT, then FDG PET/CT were performed on the same day. PET/CT imaging was performed on a 690XT or DRX PET/CT tomograph (GE Healthcare). The PET sinograms were reconstructed using a fully-3D OSEM algorithm into a 30 cm field of view; the pixel size was 1.2 mm and the slice thickness was 3.27 mm (DRX) or 1.96 mm (690XT). CT imaging was obtained immediately prior to PET acquisition and used for attenuation correction. Cerebral PiB retention, a marker of amyloid deposition, was measured as previously described. (See Kantarci K, Lowe V, Przybelski S A, et al. “Magnetic resonance spectroscopy, {beta}-amyloid load, and cognition in a population-based sample of cognitively normal older adults”, Neurology 2011; 77:951-8.)

[5] = test system: non-meningioma tumors; assay: PiB PET/CT imaging of non-meningioma tumors and lesions in patients; format: in vivo, human
From the text: as §5, §6, §7, §8

[6] = test system: non-meningioma tumors; assay: FDG PET/CT imaging of non-meningioma tumors; format: in vivo, human
From the text: (§10) An Alzheimer's imaging database of two hundred forty-one patients was reviewed. […] MRI reports of all patients were reviewed for possible meningiomas and other tumors. […] Tumors smaller than 7 millimeters are generally considered too small to be evaluated by PET or PET/CT.
as §6
PET imaging was performed as part of the Mayo Clinic Study of Aging as previously described. (See Kantarci K, Lowe V, Przybelski S A, et al., “Magnetic resonance spectroscopy, {beta}-amyloid load, and cognition in a population-based sample of cognitively normal older adults”, Neurology 2011; 77:951-8.) PiB PET/CT, then FDG PET/CT were performed on the same day. PET/CT imaging was performed on a 690XT or DRX PET/CT tomograph (GE Healthcare). […] Cerebral PiB retention, a marker of amyloid deposition, was measured as previously described. […]

[7] = test system: meningiomas; assay: FDG PET/CT imaging of meningiomas; format: in vivo, human
From the text: as §10, §6, §9

[8] = 100 nM stain, 5 μm sections, fluorescent microscopy
[9] = 16 high-likelihood meningiomas in 15 patients, C11-PiB PET/CT
[10] = Example 1, presumed extracranial schwannoma

CNc1ccc(-c2nc3ccc(C#N)cc3s2)cc1 [Formula 6-CN-PiB]
fluorescent staining of meningioma tissue [1, 8]: stained positively; also recorded: intense fluorescence
fluorescent staining of meningioma tissue ([1]; 100 nM stain, 5 μm sections, fluorescent microscopy, listed as highly-fluorescent version of the compound of Formula (V)): accumulate
staining brightness versus other intracranial tumors ([1]; all meningiomas (n=7) vs other intracranial tumors (n=6)): qualitatively brighter
fluorescent staining of meningioma tissue ([1]; multiple WHO grade I transitional type meningiomas): stained positive
location of staining within meningioma cells [1]: outside the nuclei, within the cytoplasm and/or cell membrane
location of staining within meningioma cells ([1]; listed as highly-fluorescent version of the compound of Formula (V)): within the nucleus of the cells of the meningiomas
fluorescent staining ([2]; amyloid laden cerebral cortex, Alzheimer's disease, beta-amyloid plaques (positive control)): very intense fluorescence
fluorescent staining ([2]; lung cancer brain metastasis): scattered fluorescence; also recorded: staining in the nuclei of the cells
fluorescent staining ([2]; normal brain gray matter): almost no fluorescence
fluorescent staining ([2]; schwannoma, FIG. 6 Panel E): only trace fluorescence
fluorescent staining ([2]; some other tumors): Moderate 6-CN-PiB binding

[11CH3]Nc1ccc(-c2nc3ccc(O)cc3s2)cc1 [PiB, [N-Methyl-^11C]2-(4′-methylaminophenyl)-6-hydroxybenzothiazole]
fluorescent staining of meningioma tissue [1, 8]: stained brightly positive; also recorded: unique staining pattern
fluorescent staining of meningioma tissue ([1]; 100 nM stain, 5 μm sections, fluorescent microscopy, listed as Formula (V)): accumulate
location of staining within meningioma cells [1]: within the nucleus of the cells of the meningiomas
SUVmax ([3]; 2.0 cm thick meningioma, focused irradiation 1 month prior to PiB PET/CT): 3.6
SUVmax range [3, 9]: 1.4-3.6
average SUVmax (by body weight) [3, 9]: 2.2
uptake on PET/CT ([3]; Example 1, one of seven presumed meningiomas, small size (~4 mm thick)): some uptake
uptake on PET/CT ([3]; Example 1, six of seven presumed meningiomas, 241 patient database): intense uptake
uptake on PET/CT ([3]; Example 2, recurrent orbital meningioma and falx meningioma in one patient): avid uptake
uptake on PET/CT ([3]; Example 2, total of ten presumed meningiomas): show uptake
repeat imaging result ([3]; Example 3, one patient imaged two times, many months in between): the same positive results
uptake on PET/CT ([3]; Example 3, thirteen out of thirteen presumed meningiomas >5 mm within field of view): positive uptake
uptake on PET/CT ([3]; Example 3, three non-diagnostic presumed meningiomas): some positive uptake
repeat imaging SUVmax of meningioma ([3]; Example 4, two patients imaged with PiB PET/CT more than once): stable or increasing SUVmax
activity at the meningioma on PET/CT ([3]; FIG. 1, Patient #1, right tentorium cerebelli mass): intense activity
activity at the meningioma on PET/CT ([3]; FIG. 2, Patient #4, tuberculum sellae and planum sphenoidale mass): intense activity
SUVmax ([3]; FIG. 3, 2.6 cm thick meningioma of the right tentorium): 2.8
SUVmax ([3]; FIG. 4 meningioma, Panels A-C): 2.8
SUVmax ([3]; FIG. 4 meningioma, panels G-I): 3.6
SUVmax ([3]; FIG. 5 Panel A, sella/supracellar region meningioma): 1.7
SUVmax ([3]; FIG. 5 Panel C, internal auditory canal meningioma): 1.9
SUVmax ([3]; FIG. 5 Panel E, lateral ventricle meningioma): 2.1
SUVmax ([3]; FIG. 5 Panel G, post-surgical meningioma recurrence): 1.5
PiB PET/CT result ([3]; all 16 meningiomas identified by strict imaging criteria): PiB activity greater than normal adjacent tissues; also recorded: clearly diagnostically positive
amount of harmful radiation to the patient ([3]; injection and PET/CT imaging): within acceptable limits for diagnostic purposes
average SUVmax ([4]; nearby normal bone): 0.6
average SUVmax ([4]; nearby normal grey matter): 1.1
PiB activity ([4]; nearby normal white matter, FIG. 5): high level of nonspecific PiB activity
average background SUVmax ([4]; surrounding cerebrospinal fluid): 0.2
uptake on PET/CT ([5]; Example 1, other tumors): little to no uptake
uptake on PET/CT [5, 10]: no uptake
uptake on PET/CT ([5]; Example 3, 25 types of tumors and non-neoplastic lesions incl. schwannoma, hamartoma, ependymoma, pituitary adenoma): only background uptake or no uptake
SUVmax ([5]; FIG. 4 melanoma metastasis): 0.9
SUVmax ([5]; FIG. 4 small cell lung cancer metastasis): 1.1
SUVmax ([5]; FIG. 5 Panel B, pituitary macroadenoma): 0.9
SUVmax ([5]; FIG. 5 Panel D, schwannoma): 0.8
SUVmax ([5]; FIG. 5 Panel F, ependymoma): 0.4
SUVmax ([5]; FIG. 5 Panel H, postoperative changes/scarring): 0.6
PiB PET/CT result ([5]; all non-meningioma intracranial tumors (metastases, pituitary macroadenomas, schwannomas, ependymoma)): PiB activity equal or less than normal adjacent tissue; also recorded: negative
SUVmax ([5]; all non-meningioma intracranial tumors identified): ≤ 1.1
SUVmax ([5]; bony lesions (hemangiomas, fibrous dysplasia, hyperostosis frontalis, osteoma)): < 1.0
SUVmax ([5]; extra-cranial tumors (sinus polyps, mucus retention cysts, mucocele, Warthin's tumors, inverted papilloma)): < 1.2
PiB PET/CT result ([5]; intracranial metastases (melanoma, small cell lung cancer)): negative with low activity
PiB activity ([5]; non-tumorous lesions (strokes, arachnoid cysts, multiple sclerosis lesions)): only trace PiB activity
SUVmax ([5]; vascular lesions (aneurysms, telangiectasias, cavernomas, venous angiomas)): ≤ 1.2

Fluorodeoxyglucose [FDG]
uptake on FDG-PET/CT [6, 10]: mild uptake
FDG PET/CT result ([6]; FIG. 5 pituitary macroadenoma): positive
FDG PET activity ([6]; melanoma and small cell lung cancer metastases): increased FDG PET activity; also recorded: positive
uptake on FDG-PET/CT ([7]; Example 1, four meningiomas): no uptake
uptake on FDG-PET/CT ([7]; Example 1, two meningiomas): mild uptake
FDG activity ([7]; FIG. 3 meningioma): only trace FDG activity
FDG PET activity ([7]; FIG. 4 meningioma, panels G-I): increased FDG PET activity
FDG activity ([7]; seven of the 16 meningiomas): moderate to high FDG activity
